Columns and labels:
Caveolin-1 = Caveolin-1 expression, western blot; type: cell-based, human; conditions: for caveolin-1 expression after pretreatment, compared to CNP treated cells: melanoma cells pretreated with N-acetyl-L-cysteine (4 h) or apocynin (1 h), then CNP
Experimental: FIG. 6 Expression of Caveolin-1 in melanoma cells. […] H2O2 was used as a positive control and a-tubulin as a loading control. Three independent experiments were performed.

cytochrome c = test: Cytosolic cytochrome c, western blot; conditions: A375; CNP 12 and 24 h; H2O2 1 h; vs mock-treated controls
A375 melanoma cells [1] = test: Carbonylated proteins in cells (OxyBlot); conditions: A375, 150 μM CNP 4-48 h or 250 μM H2O2
A375 melanoma cells [2] = test: Oxidized thiol groups (sulfenic acid), western blot; conditions: A375, 150 μM CNP 24 h or 1 mM H2O2 2 h, vs dimedone treated controls
A375 melanoma cells [3] = test: Extracellular hydrogen peroxide (Amplex Red); type: cell-based, human; conditions: A375, 1 h pre-incubation with 1 mM apocynin prior to CNP; 24 and 48 h
Experimental: The Amplex Red reagent (10-acetyl-3,7-dihydroxyphenoaxine), in combination with horseradish peroxidase (HRP), can be used to detect hydrogen peroxide released from cells. H2O2-mediated oxidation of the reagent results in the fluorescent product resorufin. Subconfluent A375 tumor cells were treated with 150 μM CNP or pre-incubated with 1 mM apocynin in serumfree DMEM in 96-well plates for different time points. […] Furthermore, the generation of intracellular ROS was determined using 2?,7?-Dichlorodihydrofluorescein diacetate (H2DCF-DA), a dye that diffuses across the lipid membranes into cells and is subsequently oxidized by intracellular ROS forming the highly fluorescent DCF.

[4] = tested on: human dermal fibroblasts (HDF); test: Intracellular ROS (DCF fluorescence), fibroblasts; conditions: 150 μM CNP or 5 μM doxorubicin, DCF over 90 min
A375 melanoma cells [5] = test: Intracellular ROS (DCF fluorescence), melanoma cells; conditions: A375, 5 μM doxorubicin, DCF over 90 min
caspase-3 = test: Caspase-3 activity assay; type: cell-based, human; conditions: melanoma cells, 100 nM staurosporine 24 h, positive control
Experimental: Cell pellets were suspended in cell lysis buffer and incubated on ice for 45 min. The lysate was vortexed every 15 min. After centrifugation at 11000×g for 15 min, supernatants were collected and immediately measured for protein concentration and caspase activity. Briefly, cell lysates (20 μg protein) were placed in 96-well plates and then the specific caspase substrate (Ac-DEVD-AMC for caspase-3) was added. Plates were incubated at 37° C. for 1 h and caspase activity was determined by fluorescence intensity with the excitation and emission wavelengths set at 380 nm and 440 nm, respectively.

[6] = tested on: human dermal fibroblasts (HDF)
Experimental: (§1) The activity of mitochondrial dehydrogenases, as indicator of cellular viability, results in the formation of a purple formazan dye. […] The medium was removed and the cells were lysed in dimethyl sulfoxide. The formazan formation was measured at 570 nm.

[7] = tested on: human endothelial cells (HMEC-1)
Experimental: as §1

OO [H2O2, hydrogen peroxide]
Cav-1 expression vs mock-treated control (Caveolin-1; melanoma cells, CNP for 1 h, H2O2 for 1 h and 4 h): completely abrogated | cytosolic cytochrome c (cytochrome c): significant increase | amount of carbonylated proteins vs mock-treated cells (A375 melanoma cells [1]): significantly increased | oxidized thiols (sulfenic acid) (A375 melanoma cells [2]): similarlevel

CC(=O)N[C@@H](CS)C(=O)O [N-acetyl-L-cysteine]
caveolin-1 expression after pretreatment, compared to CNP treated cells (Caveolin-1): increased caveolin-1 expression

COc1cc(C(C)=O)ccc1O [apocynin]
CNP mediated hydrogen peroxide generation after apocynin pre-incubation (A375 melanoma cells [3]): downregulated | caveolin-1 expression after pretreatment, compared to CNP treated cells (Caveolin-1): increased caveolin-1 expression

COc1cccc2c1C(=O)c1c(O)c3c(c(O)c1C2=O)C[C@@](O)(C(=O)CO)C[C@@H]3O[C@H]1C[C@H](N)[C@H](O)[C@H](C)O1 [doxorubicin]
intracellular ROS level [4]: significantly increased | intracellular ROS level (A375 melanoma cells [5]): significantly increased

CN[C@@H]1C[C@H]2O[C@@](C)([C@@H]1OC)n1c3ccccc3c3c4c(c5c6ccccc6n2c5c31)C(=O)NC4 [staurosporine]
caspase-3 activity (caspase-3): increased

dextran-coated cerium oxide nanoparticles [CNP]
cell viability [6]: not altered | cell viability [7]: not altered

Source: patent US20130337070A1, “Coated Nanoparticle Therapy for Skin Cancer” (University of Central Florida Research Foundation Inc., priority 2012, published 2013)
